Experimental data reported in US10815226B2, “Heteroaryl compounds as inhibitors of necrosis, composition and application thereof” (ACCRO BIOSCIENCE INC., priority 2016, dated 2020).

System: HT29 cells
Assay: HT29 cell necroptosis assay (TNF-α/Smac mimetic/z-VAD induced necrosis, viability)
Type: cell-based, human
Conditions: 10 μM test compound pretreated one hour, TNF-α (40 ng/mL), Smacmimetic (100 nM), z-VAD (20 μM) for 48 hours
Method: Biological in Vitro HT29 Cell Assay.
(§1) The efficacies of RIP1 inhibitors were tested in vitro using human colon cancer TH29 cells in a necroptosis assay. For the assay, Cells were added to 96-well plates and then 10 μM of the test compound was pretreated for one hour. Then the cells were treated with TNF-α (40 ng/mL), Smacmimetic (100 nM) and z-VAD (20 μM) for 48 hours, and the viability was quantified. DMSO pretreatment group was negative control, Nec-1 pretreatment group was positive control.

Compound	HT29 Inhibition (10 μM) [%]
Nc1nc2ccc(-c3cnc(Cl)c(NC(=O)c4cccc(F)c4)c3)cc2s1 [Compound A1]	112
CC(=O)Nc1nc2ccc(-c3cnc(Cl)c(NC(=O)c4cccnc4)c3)cc2s1 [Compound A3]	7
CC(=O)Nc1nc2ccc(-c3cnc(Cl)c(NC(=O)c4ccncc4)c3)cc2s1 [Compound A4]	25
CC(=O)Nc1nc2ccc(-c3cncc(NC(=O)c4cccc(F)c4)c3)cc2s1 [Compound A5]	50
CC(=O)Nc1nc2ccc(-c3cnc(C)c(NC(=O)CC4CCCCC4)c3)cc2s1 [Compound A25]	68
Cc1ncc(-c2ccc3nc(NC(=O)CCCCCNC(=O)OC(C)(C)C)sc3c2)cc1NC(=O)Cc1ccccc1 [Compound A31]	87
CC(=O)Nc1nc2ccc(-c3cnc(C)c(NC(=O)CN4CCCCC4)c3)cc2s1 [Compound A40]	79
CC(=O)Nc1nc2ccc(-c3cnc(C)c(NC(=O)CC4CCCC4)c3)cc2s1 [Compound A43]	78
CC(=O)Nc1nc2ccc(-c3cnc(C)c(NC(=O)CC(C)C)c3)cc2s1 [Compound A44]	47
CC(=O)Nc1ncc2cc(-c3cnc(C)c(NC(=O)OC4CCCCC4)c3)ccc2n1 [Compound A96]	8
Cc1ncc(-c2ccc3[nH]c(=O)ccc3c2)cc1NC(=O)OC1CCCCC1 [Compound A97]	7
CC(=O)Nc1ncc2ccc(-c3cnc(C)c(NC(=O)OC4CCCCC4)c3)cc2n1 [Compound A98]	50
O=C(Cc1ccccc1)Nc1cc(-c2ccc3ncsc3c2)cnc1Cl [Compound A100]	9
Cc1ncc(-c2ccc3nc(N(C)C(=O)CCCCCNC(=O)OC(C)(C)C)sc3c2)cc1NC(=O)Cc1ccccc1 [Compound A101]	5
Cc1ncc(-c2ccc3nc(N(C)C(=O)CCCCCNC(=O)CCCCCNC(=O)CCCC[C@@H]4SC[C@@H]5NC(=O)N[C@@H]54)sc3c2)cc1NC(=O)Cc1ccccc1 [Compound A102]	5
CNc1nc2ccc(-c3cnc(C)c(NC(=O)OC4CCCCC4)c3)cc2s1 [Compound A103]	20

System: L929 cells
Assay: L929 cell necroptosis assay (same protocol as the HT29 cell assay)
Type: cell-based, mouse
Conditions: 10 μM test compound, protocol as HT29 assay
Method: as §1, with “For the assay, Cells were added to 96-well plates and then 10 μM of the test compound was pretreated for one hour.” left out
Biological In Vitro L929 Cell Assay.
Mouse L-cells NCTC 929 (L929) were acquired from ATCC (cat. no. ATCC CCL-1) and banked in liquid nitrogen. The assay protocol was the same as described for the HT29 cell assay.

Compound	L929 Inhibition (10 μM) [%]
Nc1nc2ccc(-c3cnc(Cl)c(NC(=O)c4cccc(F)c4)c3)cc2s1 [Compound A1]	48
CC(=O)Nc1nc2ccc(-c3cnc(Cl)c(NC(=O)c4cccnc4)c3)cc2s1 [Compound A3]	1
CC(=O)Nc1nc2ccc(-c3cnc(Cl)c(NC(=O)c4ccncc4)c3)cc2s1 [Compound A4]	1
CC(=O)Nc1nc2ccc(-c3cncc(NC(=O)c4cccc(F)c4)c3)cc2s1 [Compound A5]	90

System: HT29 cells
Assay: HT29 cell necroptosis assay (TNF-α/Smac mimetic/z-VAD induced necrosis, viability)
Type: cell-based, human
Conditions: HT29 cells, TNF-α/Smacmimetic/z-VAD induced necrosis; values in nM

Compound	IC50 [nM]
CC(=O)Nc1nc2ccc(-c3cnc(F)c(NC(=O)OC4CCCCC4)c3)cc2s1 [Compound A84]	31
CC(=O)Nc1nc2ccc(-c3cnc(F)c(NC(=O)OC4CCCCC4)c3)cc2s1 [Compound A90]	300

Same assay, conditions: Homo sapiens, HT-29, HT29 cells, TNF-α/Smacmimetic/z-VAD induced necrosis; values given in μM

Compound	IC50 [nM]
Cc1ncc(-c2ccc3nc(NC(=O)CCCCCNC(=O)OC(C)(C)C)sc3c2)cc1NC(=O)Cc1ccccc1 [Compound A31]	3400
CC(=O)Nc1nc2ccc(-c3cnc(C)c(NC(=O)CN4CCCCC4)c3)cc2s1 [Compound A40]	1100
CC(=O)Nc1nc2ccc(-c3cnc(C)c(NC(=O)CC(C)C)c3)cc2s1 [Compound A44]	2690
CC(=O)Nc1nc2ccc(-c3cnc(C)c(NC(=O)OC4CCCCC4)c3)cn2n1 [Compound A53]	2190
CC(=O)Nc1nc2cnc(-c3cnc(C)c(NC(=O)OC4CCCCC4)c3)cc2s1 [Compound A64]	1000

Same assay, conditions: Homo sapiens, HT-29, HT29 cells, TNF-α/Smacmimetic/z-VAD induced necrosis; values in nM

Compound	IC50 [nM]
CC(=O)Nc1nc2ccc(-c3cnc(C)c(NC(=O)CC4CCCCC4)c3)cc2s1 [Compound A25]	255
CC(=O)Nc1nc2ccc(-c3cnc(C)c(NC(=O)CC4CCCC4)c3)cc2s1 [Compound A43]	431
CC(=O)Nc1nc2ccc(-c3cnc(C)c(NC(=O)OC4CCCC4)c3)cc2s1 [Compound A47]	124
CC(=O)Nc1nc2ccc(-c3cnc(C)c(NC(=O)OC(C)(C)C)c3)cc2s1 [Compound A48]	500
CC(=O)Nc1nc2ccc(-c3cnc(C)c(NC(=O)NC4CCCCC4)c3)cc2s1 [Compound A49]	357
CC(=O)Nc1cn2cc(-c3cnc(C)c(NC(=O)OC4CCCCC4)c3)ccc2n1 [Compound A50, Cyclohexyl (5-(2-acetamidoimidazo[1,2-a]pyridin-6-yl)-2-methylpyridin-3-yl)carbamate]	97
CC(=O)Nc1nc2ccc(-c3cc(NC(=O)OC4CCCCC4)c(C)cn3)cc2s1 [Compound A51]	73
CC(=O)Nc1nc2ccc(-c3cnc(C)c(NC(=O)OC4CCOCC4)c3)cc2s1 [Compound A55]	253
CC(=O)Nc1nc2ccc(-c3cnc(C)c(NC(=O)OC4CCC(F)(F)CC4)c3)cc2s1 [Compound A59]	689
CCC(=O)Nc1nc2ccc(-c3cnc(C)c(NC(=O)OC4CCCCC4)c3)cc2s1 [Compound A60]	53
CCOC(=O)Nc1nc2ccc(-c3cnc(C)c(NC(=O)OC4CCCCC4)c3)cc2s1 [Compound A62]	63
CC(=O)Nc1cn2nc(-c3cnc(C)c(NC(=O)OC4CCCCC4)c3)ccc2n1 [Compound A65]	167
CC(=O)Nc1nc2ccc(-c3cc(NC(=O)OC4CCCCC4)c(C)nn3)cc2s1 [Compound A66, Cyclohexyl 6-(2-acetamidobenzo[d]thiazol-6-yl)-3-methylpyridazin-4-ylcarbamate]	247
Cc1ncc(-c2ccc3nc(NC(=O)C4CC4)cn3n2)cc1NC(=O)OC1CCCCC1 [Compound A67]	31
Cc1ncc(-c2ccc3nc(NC(=O)C4CC4)sc3c2)cc1NC(=O)OC1CCCOC1 (stereo not drawn) [Compound A68]	31
COc1ncc(-c2ccc3nc(NC(C)=O)sc3c2)cc1NC(=O)OC1CCCCC1 [Compound A69]	107
Cc1ncc(-c2ccc3nc(N)sc3c2)cc1NC(=O)OC1CCCCC1 [Compound A70, Cyclohexyl (5-(2-aminobenzo[d]thiazol-6-yl)-2-methylpyridin-3-yl)carbamate]	93

Compound	IC50 [nM]
Cc1ncc(-c2ccc3nc(NC(=O)C4CC4)sc3c2)cc1NC(=O)OC1CCOCC1 [Compound A71]	12
CC(=O)Nc1nc2ccc(-c3cnc(C#N)c(NC(=O)OC4CCCCC4)c3)cc2s1 [Compound A72]	534
CC(=O)Nc1nc2ccc(-c3cnc(C)c(NC(=O)OC(C)C)c3)cc2s1 [Compound A73]	287
CC(=O)Nc1nc2ccc(-c3cnc(C)c(NC(=O)OC4CCC(=O)CC4)c3)cc2s1 [Compound A78]	867
CC(=O)Nc1nc2ccc(-c3cnc(C)c(NC(=O)O[C@H]4CC[C@@H](O)CC4)c3)cc2s1 [Compound A80]	653
Cc1ncc(-c2ccc3nc(NC(=O)C4CC4)cn3c2)cc1NC(=O)OC1CCCCC1 [Compound A81, Cyclohexyl (5-(2-(cyclopropanecarboxamido)imidazo[1,2-a]pyridin-6-yl)-2-methylpyridin-3-yl)carbamate]	9
CC(=O)Nc1nc2ccc(-c3cnc(Cl)c(NC(=O)OC4CCCCC4)c3)cc2s1 [Compound A83]	45
CCC(C)OC(=O)Nc1cc(-c2ccc3nc(NC(C)=O)sc3c2)cnc1C (stereo not drawn) [Compound A86]	87
CC(=O)Nc1nc2ccc(-c3cnc(C)c(NC(=O)OC4CCCCCC4)c3)cc2s1 [Compound A87]	9
CC(=O)Nc1nc2ccc(-c3cnc(C)c(NC(=O)OC(C)C4CC4)c3)cc2s1 (stereo not drawn) [Compound A88]	40
CCC(CC)OC(=O)Nc1cc(-c2ccc3nc(NC(C)=O)sc3c2)cnc1C [Compound A89]	51
CC(=O)Nc1nc2ccc(-c3cnc(C)c(NC(=O)OC4CCC4)c3)cc2s1 [Compound A92]	121
CNC(=O)Nc1nc2ccc(-c3cnc(C)c(NC(=O)OC4CCCCC4)c3)cc2s1 [Compound A94]	10
CC(=O)Nc1nc2ccc(-c3cnc(C)c(NC(=O)OC4CCC5(CC4)CC5)c3)cc2s1 [Compound A95]	53
CC(=O)Nc1ccc2cc(-c3cnc(C)c(NC(=O)OC4CCCCC4)c3)ccc2n1 [Compound A99]	441
Cc1ncc(-c2ccc3nc(NC(=O)c4ccccc4)sc3c2)cc1NC(=O)OC1CCCCC1 [Compound A104]	60
